Assay results reported in article PMC11219871, “Epigenetic-based differentiation therapy for Acute Myeloid Leukemia” (Nature Communications, 2024).
Values joined by “and” are separate entries in the source; they are usually repeats but may differ in a detail not shown here. Identical values can stand only once. Like-named read-outs stand apart in the source and are kept apart here.

What was measured:
Type in all cases: cell-based, human
HL-60 [1] = assay: Differentiation-apoptosis assay, CD11b / annexin-V / Sytox Green / myeloid markers flow cytometry; design: Cell viability (%): concentration or dose not given beside the values; conditions: for CD11b (%) / Cell viability (%): HL-60, 48 h treatment, replicates 1-3 (Suppl. Fig. 5A)
Method: Next, the cells were washed twice with phosphate-buffered saline (PBS) and resuspended in 1X Binding Buffer at a concentration of 1 × 10^6 cells/mL. […] Finally, after the addition of 400 µL of 1X Binding Buffer to each tube, samples were collected on a BD FACSCanto flow cytometer (Becton Dickinson, San Jose, CA, USA) and analyzed using FlowJo software.
Then, 1 million cells (volume of 250 µL) were added and incubated for 30 min at room temperature in darkness. After 10 min incubation at room temperature with 2 mL of FACSLysing 1X, cells were centrifuged at 540 g for 5 min and washed twice with FACSBuffer. Finally, after centrifugation at 540 g for 5 min cells were resuspended in FACSBuffer.

HL-60 [2] = assay: Cell proliferation assay: GI50; conditions: read-out: GI50
Method: (§1) Cell proliferation was analyzed using the CellTiter 96 Aqueous One Solution Cell Proliferation Assay (Promega, Madison, WI). This is a colorimetric method for determining the number of viable cells in proliferation. For the assay, suspension cells were cultured in triplicate at a density of 1 × 10^6 cells/mL in 96-well plates (100.000 cells/well, 100 µL/well), using only the 60 inner wells to avoid any border effects. […] Then, the cells were incubated with 100 μL/well of medium and 20 μL/well of CellTiter 96 Aqueous One Solution reagent for 1–3 h. […] The background absorbance was measured in wells with only cell line medium and solution reagent. First, the average of the absorbance from the control wells was subtracted from all other absorbance values. Data were calculated as the percentage of total absorbance of treated cells/absorbance of non-treated cells. The GI50 values of the different compounds were determined using non-linear regression plots made with GraphPad Prism v5 software.

ML-2 [3] = assay: Cell proliferation assay: GI50
Method: as §1

MOLM-13 [4] = assay: Cell proliferation assay: GI50
Method: as §1

MV4-11 [5] = assay: Cell proliferation assay: GI50
Method: as §1

ML-2 [6] = assay: Differentiation-apoptosis assay, CD11b / annexin-V / Sytox Green / myeloid markers flow cytometry; design: Cell viability: concentration or dose not given beside the values; conditions: ML-2, 48 h; replicates (Fig 4A)
Method: (§2) Next, the cells were washed twice with phosphate-buffered saline (PBS) and resuspended in 1X Binding Buffer at a concentration of 1 × 10^6 cells/mL. An 8-µL aliquot of APC-CD11b (BD Pharmingen, Franklin Lakes, NJ, USA) and 1 µL of FITC annexin-V (AV) (BD Pharmingen, Franklin Lakes, NJ, USA) antibodies were added and incubated for 15 min at room temperature in the dark. Finally, after the addition of 400 µL of 1X Binding Buffer to each tube, samples were collected on a BD FACSCanto flow cytometer (Becton Dickinson, San Jose, CA, USA) and analyzed using FlowJo software.
(§3) For the rest of experiments, the mix of antibodies (2 µL of BV786-CD13, Cat No, 744748 BD; 1 µL of diluted 1:10 antibody of PB-HLADR, Cat No 307633, Biolegend; 5 µL of APCH7-CD14, Cat No 641394, BD) was added to 10 µL of Brilliant Stain Buffer Plus (Becton Dickinson, San Jose, CA, USA). Then, 1 million cells (volume of 250 µL) were added and incubated for 30 min at room temperature in darkness. After 10 min incubation at room temperature with 2 mL of FACSLysing 1X, cells were centrifuged at 540 g for 5 min and washed twice with FACSBuffer. Finally, after centrifugation at 540 g for 5 min cells were resuspended in FACSBuffer.

MOLM-13 [7] = assay: as above; design: Cell viability (%): concentration or dose not given beside the values; conditions: MOLM-13, 48 h treatment, replicates 1-3 (Suppl. Fig. 5A)
Method: as §2, §3

MV4-11 [8] = assay: as above; design: Cell viability (%): concentration or dose not given beside the values; conditions: MV4-11, 48 h treatment, replicates 1-3 (Suppl. Fig. 5A)
Method: as §2, §3

[9] = HL-60, replicates 1-3, µM for the other inhibitors
[10] = ML-2, replicates 1-3, µM for the other inhibitors
[11] = MOLM-13, replicates 1-3, µM for the other inhibitors
[12] = MV4-11, replicates 1-3, µM for the other inhibitors

In the case of `CCCc1nn(C)c2c(=O)[nH]c(-c3cc(S(=O)(=O)N4CCN(C)CC4)ccc3OCC)nc12` [Sildenafil, reference compound], the “Annexin V (%) Replicate 1” value (HL-60 [1]; HL-60, daily 25% GI50, 48 h) is reported as 0.22%, the “Annexin V (%) Replicate 2” value (HL-60 [1]; HL-60, daily 25% GI50, 48 h) is reported as 0.14% and the “Annexin V (%) Replicate 3” value (HL-60 [1]; HL-60, daily 25% GI50, 48 h) is reported as 0.18%. The “CD11b (%) Replicate 1” value (HL-60 [1]; HL-60, daily 25% GI50, 48 h) was 0.00%, the “CD11b (%) Replicate 2” value (HL-60 [1]; HL-60, daily 25% GI50, 48 h) was 4.74% and the “CD11b (%) Replicate 3” value (HL-60 [1]; HL-60, daily 25% GI50, 48 h) was 4.47%.
In the case of `Nc1ccccc1NC(=O)c1ccc(CNC(=O)OCc2cccnc2)cc1` [Entinostat, reference compound], the GI50 (HL-60 [2]; [9]) is reported as 8.3 µM and 7.3 µM, the GI50 (HL-60 [2]; Homo sapiens, HL-60, HL-60, replicates 1-3, µM for the other inhibitors) is reported as 7.8 µM and the GI50 (ML-2 [3]; Homo sapiens, ML-2, 48 h) is reported as 9.1 µM. The GI50 (ML-2 [3]; Homo sapiens, ML-2, ML-2, replicates 1-3, µM for the other inhibitors) was 6.6 µM, the GI50 (ML-2 [3]; [10]) was 10.9 µM and 9.8 µM and the GI50 (MOLM-13 [4]; Homo sapiens, MOLM-13, 48 h) was 2.4 µM. The GI50 (MOLM-13 [4]; Homo sapiens, MOLM-13, MOLM-13, replicates 1-3, µM for the other inhibitors) was 2.6 µM, the GI50 (MOLM-13 [4]; [11]) was 2 µM and the GI50 (MV4-11 [5]; Homo sapiens, MV4-11, MV4-11, replicates 1-3, µM for the other inhibitors) was 3.3 µM. For the same compound, the GI50 (MV4-11 [5]; [12]) was 2.8 µM and 3 µM, the “CD11b (%)” value (HL-60 [1]) was 32.6% and 37.2% and 30.1% and the “Cell viability (%)” value (HL-60 [1]) was 38.4% and 38.5% and 40.7%. For the same compound, the CD11b (ML-2 [6]) was 25.1% and 39.8% and 36.7%, the Cell viability (ML-2 [6]) was 59.1% and 65.7% and 58.8% and the “CD11b (%)” value (MOLM-13 [7]) was 76.1% and 83.2% and 84.3%. The “Cell viability (%)” value (MOLM-13 [7]) was 47.7% and 56.4% and 56.1%, the “CD11b (%)” value (MV4-11 [8]) was 41.0% and 45.6% and 43.2% and the “Cell viability (%)” value (MV4-11 [8]) was 35.1% and 39.2% and 39.7%.
`Cn1cc(CNCC2CCN(c3ncc(C(=O)NO)cn3)CC2)c2ccccc21` [Quisinostat, reference compound] was tested, and the GI50 (HL-60 [2]; HL-60, replicates 1-3, nM for Panobistat and Quisinostat) was 0.138 µM and 0.103 µM, the GI50 (HL-60 [2]; Homo sapiens, HL-60, HL-60, replicates 1-3, nM for Panobistat and Quisinostat) was 0.0957 µM and the GI50 (HL-60 [2]; Homo sapiens, HL-60, HL-60) was 0.112 µM. For the same compound, the GI50 (ML-2 [3]; Homo sapiens, ML-2, ML-2) was 0.076 µM, the GI50 (ML-2 [3]; Homo sapiens, ML-2, ML-2, replicates 1-3, nM for Panobistat and Quisinostat) was 0.0673 µM and the GI50 (ML-2 [3]; ML-2, replicates 1-3, nM for Panobistat and Quisinostat) was 0.0895 µM and 0.0712 µM. For the same compound, the GI50 (MOLM-13 [4]; Homo sapiens, MOLM-13, MOLM-13) was 0.067 µM, the GI50 (MOLM-13 [4]; Homo sapiens, MOLM-13, MOLM-13, replicates 1-3, nM for Panobistat and Quisinostat) was 0.0589 µM and the GI50 (MOLM-13 [4]; MOLM-13, replicates 1-3, nM for Panobistat and Quisinostat) was 0.0736 µM and 0.0685 µM. For the same compound, the GI50 (MV4-11 [5]; Homo sapiens, MV4-11, MV4-11) was 0.013 µM, the GI50 (MV4-11 [5]; MV4-11, replicates 1-3, nM for Panobistat and Quisinostat) was 0.0131 µM and 0.0143 µM and the “CD11b (%)” value (HL-60 [1]) was 36.8% and 39.6% and 35.4%. For the same compound, the “Cell viability (%)” value (HL-60 [1]) was 84.1% and 72.6% and 75.5%, the CD11b (ML-2 [6]) was 35.4% and 25.9% and 25.4% and the Cell viability (ML-2 [6]) was 86.7% and 75.1% and 77.3%. For the same compound, the “CD11b (%)” value (MOLM-13 [7]) was 55.3% and 50.4% and 58.7%, the “Cell viability (%)” value (MOLM-13 [7]) was 64.2% and 57.7% and 56.3% and the “CD11b (%)” value (MV4-11 [8]) was 16.1% and 10.9% and 10.0%. For the same compound, the “Cell viability (%)” value (MV4-11 [8]) was 83.6% and 79% and 74.7%.
For `CN1CCc2c(c3ccccc3n2Cc2ccc(C(=O)NO)cc2)C1` [Tubastatin, reference compound], the GI50 (HL-60 [2]; HL-60, 48 h) was over 10 µM, the GI50 (HL-60 [2]; [9]) was over 10 µM and the GI50 (ML-2 [3]; ML-2, 48 h) was over 10 µM. It also gave a GI50 (ML-2 [3]; [10]) of over 10 µM, a GI50 (MOLM-13 [4]; MOLM-13, 48 h) of over 10 µM and a GI50 (MOLM-13 [4]; [11]) of over 10 µM. The GI50 (MV4-11 [5]; MV4-11, 48 h) was over 10 µM, the GI50 (MV4-11 [5]; [12]) was over 10 µM and the “CD11b (%)” value (HL-60 [1]) was 26.8% and 22.6% and 20.1%. The “Cell viability (%)” value (HL-60 [1]) was 69.4% and 76.8% and 76.1%, the CD11b (ML-2 [6]) was 28.3% and 27.1% and 25.0% and the Cell viability (ML-2 [6]) was 83.1% and 89.7% and 79.2%. For the same compound, the “CD11b (%)” value (MOLM-13 [7]) was 29.6% and 36.5% and 39.8%, the “Cell viability (%)” value (MOLM-13 [7]) was 74.1% and 65.3% and 78.4% and the “CD11b (%)” value (MV4-11 [8]) was 9.3% and 10.2% and 12.6%. For the same compound, the “Cell viability (%)” value (MV4-11 [8]) was 89.7% and 84.3% and 92.1%.
